According to patent US20240317689A1, “POTASSIUM CHANNEL MODULATOR, COMPOSITION AND APPLICATION” (NEUSHEN THERAPEUTICS (SHANGHAI) CO., LTD, priority 2021, published 2024):

How the values were obtained:
[1] = biological target: T1, KCNQ2/3 potassium ion channel (Homo sapiens, UniProt O43525+O43526); assay: KCNQ2/3 potassium ion channel activation assay (whole-cell patch clamp, hKCNQ-CHO cells); format: cell-based; conditions: read-out: Enhancment % (current enhancement multiple); for activation at 0.05 µM: test concentration 0.05 μM; for activation at 3 µM: test concentration 3 μM
T1 construct: expressed in transfected cells; host or cells: CHO cells (hKCNQ-CHO)
Procedure, shortened: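 Whole-cell patch clamp at room temperature in hKCNQ-CHO cells, pH 7.4 bath and pipette solutions, DMSO <0.3%. Enhancement = (Itest − Icontrol)/Icontrol.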

KCNQ2/3 = biological target: T2, KCNQ2/3 (Homo sapiens, UniProt O43525+O43526); assay: Half-maximal activation voltage left shift assay (whole-cell patch clamp, hKCNQ-CHO cells); format: cell-based
T2 construct: expressed in transfected cells; host or cells: CHO cells (hKCNQ-CHO)
Experimental: Example 65: Half-Maximal Activation Voltage Left Shift Assay
hKCNQ-CHO cells were cultured at 37° C. in a humidified environment of 5% CO2.
• a) Extracellular fluid (mM): NaCl 145, KCl 4, CaCl2 2, MgCl2 1, Glucose 10, HEPES 10. The pH value of the extracellular fluid was adjusted to 7.4 with NaOH, and the osmotic pressure was adjusted to about 295 mOsm. • b) Intracellular fluid (mM): KOH 31.25, KCl 120, EGTA 10, MgCl2 1.75, CaCl2 5.374, HEPES 10, Na-ATP 4. The pH value of the intracellular fluid was adjusted to 7.4 with HCl, and the osmotic pressure was adjusted to about 285 mOsm. • c) The extracellular fluid should be prepared once a week, and the intracellular fluid should be aliquoted and stored at −20° C. after preparation.
The model positive reference compound Retigabine (RTG) was dissolved with 100% DMSO and configured as a 10 mM working solution. The test compounds were dissolved with 100% DMSO and configured as a 10 mM working solution. The final concentration of DMSO in the test solution should be less than 0.3%.
Whole-cell patch clamp was performed at room temperature. The electrical signals recorded with the EPC 10 USB amplifier (HEKA Elektronik, Germany) were filtered by a 3 kHz low-pass filter, and finally recorded in PatchMaster 2×90.5 software (HEKA Elektronik, Germany). At this step, the quality control standard was that the cell high-resistance sealing was greater than 500 MOhms, and the detection current was greater than 0.4 nA.
The recording electrodes were pulled out and polished with a vertical puller (NARISHIGE PC-10, Japan) using a borosilicate glass capillary (GC150tF-10, Harvard Apparatus Co., UK). At this step, the quality control standard was that the electrode resistance was between 2 MΩ and 5 MΩ.
During the recording process of the whole-cell patch clamp, a continuous perfusion system (BT100-2J, LongerPump, China) was used to continuously perfuse the extracellular fluid. The perfusion system was installed on the stage of an upright microscope (FN-S2N, Nikon, Japan), and the perfusion head was manually positioned under the microscope.
The voltage command for detecting the amplitude of hKCNQ current was as follows: the cell was clamped from a potential of −80 mV, stepped to −120 mV, and then clamped continuously at increasing voltages of 10 mV per sweep until +60 mV, held for 1500 ms; and then the clamping voltage was lowered to −120 my and held for 500 ms; finally, the voltage returned to the clamping potential of −80 mV. The detection voltage command was repeated every 15,000 milliseconds, and the command was continuously executed during the compound test. The half-maximal voltage of the cell's hKCNQ was obtained by nonlinear fitting of the current amplitude at different clamping potentials (−120 mV to +60 mV).
Data analysis was performed using PatchMaster 2×90.5 software (HEKA Elektronik, Germany) and Excel 2013 (Microsoft, USA) software. For each cell's patch clamp recording, the half-maximal voltage (V½-test) of hKCNQ corresponding to the test compound concentration should be obtained. The left-shifted half-maximal voltage value ΔV½ (V1/2 Shift (mV)) was obtained by subtracting the half-maximal voltage of hKCNQ before compound action (V½-control) from V½-test.

[2] = Blood-brain barrier permeability assay in mice (brain concentration after intragastric administration); format: in vivo; conditions: 5 mg/kg, brain tissue homogenate
Experimental: Administration Dosage of 5 mg/kg
The drug was prepared in proportion (solvent: 5% DMSO+5% Solutol+90% normal saline) to make a solution with a concentration of 0.5 mg/mL, and the mice were subjected to intragastric administration at 0.1 mL/10 g, with 3 mice per group in parallel.
After the mice were administered, the mice were anesthetized and perfused with normal saline through the heart, dissected to collect the brain tissue. The brain tissue was washed with normal saline, dried, weighed, and transferred to a 2 mL EP tube, added with normal saline according to brain tissue: normal saline=1:1 (g/mL). 3 steel balls were put in each tube on a tissue grinder, and the tissue mixture was homogenized at 60 HZ for 60 s, centrifuged at 15000 rpm at 4° C. for 10 minutes, and the supernatant was taken, which was the brain tissue homogenate.
The drug stock solution (0.5 mg/mL) was taken and diluted with acetonitrile to form standard curve working solutions with concentrations of 50, 100, 200, 500, 1000, 2000, 5000, 10000, and 20000 ng/mL, and quality control working solutions with concentrations of 100, 2000, and 10000 ng/mL. 47.5 μL of blank matrix was taken respectively, and 2.5 μL of standard curve working solution and 2.5 μL of quality control working solution were added thereto to prepare standard curve samples with concentrations of 2.5, 5, 10, 25, 50, 100, 250, 500, and 1000 ng/mL and quality control samples with concentrations of 5, 100, and 500 ng/mL. 200 μL of acetonitrile (containing the internal standard of 5 ng/mL of Loratadine) was added thereto respectively, subjected to vortex oscillation for 3 minutes, centrifuged at 15,000 rpm and 4° C. for 10 minutes, and the supernatant was taken and analyzed by LC-MS/MS to obtain a standard curve.
50 μL of brain tissue homogenate sample was taken, added with 200 μL of acetonitrile (containing the internal standard of 5 ng/mL of Loratadine), subjected to vortex oscillation for 3 minutes, centrifuged at 15,000 rpm and 4° C. for 10 minutes, and the supernatant was taken for LC-MS/MS analysis. The standard curve was combined with the analysis to obtain the corresponding concentrations in the brain.

[3] = test system: MES-induced epilepsy in mice; assay: MES mouse epilepsy model; format: in vivo; conditions: 5 mpk, electrical stimulation 30 minutes after administration
Experimental: Example 67: MES Mouse Epilepsy Model
• 1. The mice (10 mice per group) were transferred to the operating room to adapt to the environment 30 minutes before the experiment. • 2. The mice were administered the test compounds or positive drug (Valproate) at a specific time point. 30 minutes after the administration of Valproate or 30 minutes after the administration of the test compounds, electrical stimulation was given with ear electrodes. The stimulation parameters were a square wave with a total duration of 0.8 seconds, a frequency of 50 Hz, and an amplitude of 50 mA with an interval of 10 msec. • 3. The number and duration of hind limb tonic extension of the animal within 1 minute after the completion of the electrical stimulation was recorded, and the possible death and time of death were also recorded. • 4. After administration, the possible side effects induced by the drug were observed and recorded, and the side effects are divided into four levels: • None: Normal • Mild sedation • Moderate sedation • Severe sedation

Compound | activation at 0.05 µM [1] [%] | activation at 3 µM [1] [%] | V1/2 Shift (mV) (KCNQ2/3; test concentration 50 nM) | V1/2 Shift (mV) (KCNQ2/3; test concentration 300 nM) | Concentrations in the brain [2] [ng/g] | Protection rate for tonic extension [3] [%]
Cc1cc(N2CCCc3cc(OC(C)C)ccc3C2)cc(C)c1NC(=O)CC(C)(C)C [Compound 003, N-(4-(7-isopropoxy-1,3,4,5-tetrahydro-2H-benzo[c]azepin-2-yl)-2,6-dimethylphenyl)-3,3-dimethylbutanamide] | < 50 | 50 to 100 | −7.00 | −36.06 | 127.5 | 100
Cc1cc(N2CCCc3cc(OC(C)C(F)(F)F)ccc3C2)cc(C)c1NC(=O)CC(C)(C)C (stereo not drawn) [Compound 008, N-(2,6-dimethyl-4-(7-((1,1,1-trifluoropropan-2-yl)oxy)-1,3,4,5-tetrahydro-2H-benzo[c]azepin-2-yl)phenyl)-3,3-dimethylbutanamide] | 50 to 100 | > 100 | −23.38 | −47.60 | 166.1 | 90
Cc1cc(N2CCCc3cc(O[C@H](C)C(F)(F)F)ccc3C2)cc(C)c1NC(=O)CC(C)(C)C [Compound 032, (R)—N-(2,6-dimethyl-4-(7-((1,1,1-trifluoropropan-2-yl)oxy)-1,3,4,5-tetrahydro-2H-benzo[c]azepin-2-yl)phenyl)-3,3-dimethylbutanamide] | 50 to 100 | > 100 | −17.59 |  |  | 100
Cc1cc(N2CCCc3cc(O[C@@H](C)C(F)(F)F)ccc3C2)cc(C)c1NC(=O)CC(C)(C)C [Compound 033, (S)—N-(2,6-dimethyl-4-(7-((1,1,1-trifluoropropan-2-yl)oxy)-1,3,4,5-tetrahydro-2H-benzo[c]azepin-2-yl)phenyl)-3,3-dimethylbutanamide] |  | 50 to 100 | −44.25 |  |  | 100
Cc1cc(N2CCCc3cc(OC(C)C)c(F)cc3C2)cc(C)c1NC(=O)CC(C)(C)C [Compound 035, N-(4-(8-fluoro-7-isopropoxy-1,3,4,5-tetrahydro-2H-benzo[c]azepin-2-yl)-2,6-dimethylphenyl)-3,3-dimethylbutanamide] | 50 to 100 | > 100 | −16.46 |  | 257 | 100
Cc1cc(N2CCc3cc(F)ccc3C2)cc(C)c1NC(=O)CC(C)(C)C [Xen-1101, reference compound] |  |  | −5.48 | −13.33 | 90.9 | 
